Laboratory results from patent publication US20040067222A1, “Regulation of glucocorticoid concentration” (priority 2001, published 2004).

Experiments:
[1] = system: murine BMD Mφ; test: Phagocytosis of apoptotic PMN by BMD Mφ from control and 11β-HSD-/- mice (FIG. 4); type: cell-based; details: for enhanced phagocytic effect in 11βHSD-1-/- Mφ: 11βHSD-1-/- macrophages versus control; for phagocytosis of apoptotic PMN by BMD Mφ: 48 hrs treatment, n=4/group
Procedure: Bone Marrow Derived Macrophages (BMD Mφ)—bone marrow was extracted from femurs (C57BI/6 mice) and cultured @4×10^5 cells/ml in DMEM/10% FCS/10% L929 cell line supernatant for 8 days.
(§1) Fresh PMN were isolated from peripheral blood and aged to apoptosis in Teflon wells over 24 hrs in Iscoves/10% autologous serum. Mφ were treated with glucocorticoids as described in the figures. Mφ and aPMN were washed with 1×PBS and interacted in serum free Iscoves for 30 mins at 37° C. The cell layer was gently washed to remove […] cells, fixed in 1×Formalin and stained with PMN selective myeloperoxidase.
Transgenic 11β-HSD^−/− mice have been described previously (Kotelevstev et al., PNAS (USA) 94:14924-14929). Macrophages are isolated from control and 11β-HSD^−/− mice and assayed in a PMN phagocytosis assay as described above.

[2] = system: murine peripheral macrophages; test: Phagocytosis by murine peripheral macrophages (FIG. 3); type: cell-based; details: for phagocytosis performance of macrophages: over 24 hours
Procedure: as §1

[3] = biological target: T1, 11β-HSD1 (Mus musculus, UniProt P50172); test: Conversion of 3H-11-dehydrocorticosterone to corticosterone in macrophage cultures (FIG. 2b, 2c); type: cell-based
T1 construct: endogenous in cells; host or cells: mouse macrophages (probably thioglycollate-elicited peritoneal macrophages from C57Bl/6 mice)
T1 sequence (P50172 whole entry): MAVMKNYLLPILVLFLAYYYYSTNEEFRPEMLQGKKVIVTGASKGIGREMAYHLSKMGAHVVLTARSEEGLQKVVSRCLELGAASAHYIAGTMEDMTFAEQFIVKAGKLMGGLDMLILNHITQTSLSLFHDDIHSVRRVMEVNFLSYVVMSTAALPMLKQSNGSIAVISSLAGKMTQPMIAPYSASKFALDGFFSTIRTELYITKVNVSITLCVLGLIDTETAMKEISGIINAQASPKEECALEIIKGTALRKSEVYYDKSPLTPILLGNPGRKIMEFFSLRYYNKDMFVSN
Description: (§2) Samples were taken at different times and ^3H-cort and ^3H-11-DHC were separated from media samples by thin layer chromatography and analysed by phosphorimaging.

[4] = system: blood glucose levels; details: oral administration, two mouse models of diabetes; cited from earlier work
[5] = system: 11β-HSD-1; test: 11β-reductase activity in human monocytes differentiating into macrophages, incubated with IL-4 (FIG. 8); type: cell-based; details: range of doses of IL-4, human monocytes at initiation of differentiation
Description: Human Monocytes—monocytes isolated from peripheral blood by dextran sedimentation and percoll gradient methods. Monocytes were differentiated to Mφ @4×10^6 cells/ml over 4 days in Iscoves/10% autologous serum.
as §2
The manner in which differentiating macrophages acquire 11β-HSD-1 activity can be influenced by cytokines. In the experiment shown in FIG. 8, human monocytes at the initiation of differentiation into macrophages were incubated with a range of doses of IL-4. 11β-reductase activity was measured by incubation with tritiated 11-DHC.

Compound | enhanced phagocytic effect in 11βHSD-1-/- Mφ [1] | phagocytosis of apoptotic PMN by BMD Mφ [1] | phagocytosis performance of macrophages [2] | other results
C[C@]12CC(=O)[C@H]3[C@@H](CCC4=CC(=O)CC[C@@]43C)[C@@H]1CC[C@@H]2C(=O)CO [11-dehydrocorticosterone] | abrogated | enhancement of phagocytosis | two-fold | conversion of inactive 11-dehydrocorticosterone (A) to active corticosterone (B) ([3]; mouse macrophages, over a 24 hour period): clearly shows conversion of (A) to (B)
C=CC(C)(C)c1[nH]c2ccccc2c1C1=C(O)C(=O)C(c2c[nH]c3c(CC=C(C)C)cccc23)=C(O)C1=O [L-783,281] | – | – | – | blood glucose levels [4]: significant lowering
CC1(C)[C@@H](OC(=O)CCC(=O)O)CC[C@]2(C)[C@H]3C(=O)C=C4[C@@H]5C[C@@](C)(C(=O)O)CC[C@]5(C)CC[C@@]4(C)[C@]3(C)CC[C@@H]12 [carbenoxolone] | – | – | – | effect of inactive 11-dehydrocorticosterone on phagocytosis in the presence of the inhibitor ([2]; macrophages incubated with 11-dehydrocorticosterone plus carbenoxolone): completely abolishes; effect on conversion of (A) to (B) by 11β-HSD1 ([3]; high concentrations of carbenoxolone): can be blocked
C[C@]12C[C@H](O)[C@H]3[C@@H](CCC4=CC(=O)CC[C@@]43C)[C@@H]1CC[C@@H]2C(=O)CO [corticosterone] | no effect | enhancement of phagocytosis | two-fold | –
IL-4: cytokine capable of inducing 11β-HSD 1 expression | – | – | – | conversion of inert 11-DHC to active corticosterone (11β-reductase activity) [5]: dose-relatedly increased
